Entries after “also recorded” stand apart in the source; their conditions may differ.
What was measured:
[1] = system: cochlear Lgr5 progenitor cells; test: Lgr5+ assay: expansion and enrichment of cochlear Lgr5 progenitor cells in 3D culture; format: cell-based, mouse
Source text: “Stem Cell Proliferation Assay” as used herein is an assay to determine the capacity for agent(s) to induce the creation of stem cells from a starting cell population. In an exemplary Stem Cell Proliferation Assay, the number of cells for an initial cell population is harvested from a Lgr5-GFP mouse such as a B6.129P2-Lgr5tm1(cre/ERT2)Cle/J mouse (also known as Lgr5-EGFP-IRES-creERT2 or Lgr5-GFP mouse, Jackson Lab Stock No: 008875) between the age of 0 to 5 days, by isolating the organ of Corti sensory epithelium and dissociating the epithelium into single cells. Approximately 5000 cells are entrapped in 40 μl of culture substrate (for example: Matrigel (Corning, Growth Factor Reduced)) and placed at the center of wells in a 24-well plate with 500 μl of an appropriate culture media, growth factors and agent being tested. Appropriate culture media and growth factors include Advanced DMEM/F12 with media Supplements (1×N2, 1×B27, 2 mM Glutamax, 10 mM HEPES, 1 mM N-acetylcysteine, and 100 U/ml Penicillin/[…] Streptomycin) and growth factors (50 ng/ml EGF, 50 ng/ml bFGF, and 50 ng/ml IGF-1) as well as the agent(s) being assessed are added into each well. Cells are cultured for 10 days in a standard cell culture incubator at 37° C. and 5% CO2, with media change every 2 days. The number of Lgr5+ cells is quantified by counting the number of cells identified as Lgr5+ in an In Vitro Lgr5 activity assay. The fraction of cells that are Lgr5+ is quantified by dividing the number of cells identified as Lgr5+ in a cell population by the total number of cells present in the cell population. The number of hair cells in a population may be measured by staining with hair cell marker (e.g., MyosinVIIa), or using an endogenous reporter of hair cell genes (e.g., Pou4f3-GFP, Atoh1-nGFP) and analyzing using flow cytometry. The fraction of cells that are hair cells is quantified by dividing the number of cells identified as hair cells in a cell population by the total number of cells present in the cell population. Gene and/or protein expression and/or activity is measured in this assay using methods known in the art such as by PCR, Nanostring, immunostaining, RNAseq, RNA hybridization, or Western blot analysis.
Neonatal Lgr5-EGFP-IRES-Cre-ER mice (The Jackson Laboratory, strain 8875) were used to analyze the effects of small molecules on cochlear stem cell expansion (see Barker et al., Nature 449, 1003-7 (2007). This strain allowed for visualization and quantification of EGFP cells.
All animal studies were conducted under an approved institutional protocol per National Institutes of Health guidelines. Using neonatal animals, cochleae were dissected and the organ of Corti (sensory epithelium) was separated from the stria vascularis (ion transport epithelium) and the modiolus (nerve tissue). Epithelia were then collected and treated with TrypLE for 15-20 minutes to obtain single cells. The cells were then filtered ([…]) and suspended in a Matrigel (Corning) dome for 3D culture seeded at 0.5 cochlea per well.
Expansion of Lgr5 Cells: Cells were cultured in a 3D system and bathed in a serum free 1:1 mixture of DMEM and F12, supplemented with Glutamax (GIBCO), N2, B27 (Invitrogen), EGF (50 ng/mL; Chemicon), bFGF (50 ng/mL; Chemicon), IGF-1 (50 ng/mL; Chemicon), and small molecules for seven days. Media was changed every other day. Treatments were run in triplicate or quadruplicate.
Lgr5 cells were quantified after 7-10 days. Cell colonies were dissociated into single cells using TrypLE. The cells were then stained with propidium iodide (PI) and analyzed using a flow cytometer to count Lgr5-EGFP cells. The percentage of viable Lgr5 cells was plotted against the concentration in GraphPad Prism.
Organ of Corti are dissected from Lgr5 GFP+ mice and dissociated as single cells as described above. Background media contains the same supplements and growth factors at the same concentrations as described above. […]

[2] = system: HDAC; details: Table 5; cited from earlier work

Compound: CCn1cc(C(=O)O)c(=O)c2c(N)c(F)c(NC3CCCCC3)cc21 [AS1842856]
- enrichment of Lgr5 cells (percentage) ([1]; AS1842856 425 nM combined with VPA 1 mM): enriched according to percentage
- expansion of cochlear Lgr5+ progenitor cells in culture ([1]; AS1842856 425 nM in background of EFI): elicits the expansion
- LGR5+ cell growth and enrichment / expansion of cochlear progenitor cells ([1]; AS1842856 concentration series in background of EFI): concentration-dependent effects; also recorded: enhances expansion of cochlear progenitor cells

Compound: Cc1c[nH]c(-c2cnc(NCCNc3ccc(C#N)cn3)nc2-c2ccc(Cl)cc2Cl)n1 [CHIR99021]
- expansion and enrichment of cochlear Lgr5 progenitor cells in culture ([1]; CHIR alone (GSK3 inhibition)): elicits the expansion and enrichment

Compound: O=C([O-])CCCc1ccccc1.[Na+] [Na phenylbutyrate]
- Class selectivity [2]: Class I >

Compound: VO-Ohpic
- enhancement of CHIR-elicited expansion and enrichment of cochlear Lgr5 progenitor cells ([1]; VO-Ohpic 3 uM added to CHIR): enhanced

Compound: CC(C)(C)C(=O)Nc1ccc2c(c1)C(=O)C(=O)c1ccccc1-2 [SF1670]
- enhancement of CHIR-elicited expansion and enrichment of cochlear Lgr5 progenitor cells ([1]; SF1670 0.1 uM added to CHIR): further enhanced

Source: patent US20200080055A1, “COMPOSITIONS AND METHODS FOR GENERATING HAIR CELLS BY UPREGULATING PI3K” (Frequency Therapeutics, Inc., priority 2018, published 2020)
